Experimental data from the supplement of paper PMC10307832.

How the values were obtained:
Assay in all cases: relative viability (nuclei count vs DMSO), 5 days (fraction); higher = more cells survive
Entinostat + Tozasertib = compound: Nc1ccccc1NC(=O)c1ccc(CNC(=O)OCc2cccnc2)cc1 [Entinostat] + Cc1cc(Nc2cc(N3CCN(C)CC3)nc(Sc3ccc(NC(=O)C4CC4)cc3)n2)n[nH]1 [Tozasertib] (partner 0.1 µM)
Procedure, shortened: (§1)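 Values are medians from duplicate plates. Each reflects relative viability, defined as the nuclei count of treated wells over that of vehicle wells. Lung cancer cell lines in 1536-well plates were pin-tool dosed one day after seeding with one drug alone or with a fixed anchor-drug dose plus five library-drug doses (not always all listed) in √10 steps, then fixed, stained and imaged at 4× after 5 days.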

SGI-1776 + Lapatinib = compound: CN1CCC(CNc2ccc3ncc(-c4cccc(OC(F)(F)F)c4)n3n2)CC1 [SGI-1776] + CS(=O)(=O)CCNCc1ccc(-c2ccc3ncnc(Nc4ccc(OCc5cccc(F)c5)c(Cl)c4)c3c2)o1 [Lapatinib] (partner 2 µM)
Procedure, shortened: as §1

Entinostat + Linsitinib = compound: Nc1ccccc1NC(=O)c1ccc(CNC(=O)OCc2cccnc2)cc1 [Entinostat] + C[C@]1(O)C[C@@H](c2nc(-c3ccc4ccc(-c5ccccc5)nc4c3)c3c(N)nccn32)C1 [Linsitinib] (partner 1 µM)
Procedure, shortened: as §1

[1] = compound: C1COCCN1C2=NC(=NC3=C2OC4=C3C=CC=N4)C5=CC(=CC=C5)NC(=O)C6=CN=C(C=C6)N + C[C@@H](Oc1cc(-c2cnn(C3CCNCC3)c2)cnc1N)c1c(Cl)ccc(F)c1Cl [Crizotinib] (partner 1 µM)
Procedure, shortened: as §1

Cell Line | relative viability (Entinostat + Tozasertib; first compound 0.02 µM) | relative viability (Entinostat + Tozasertib; first compound 0.06325 µM) | relative viability (Entinostat + Tozasertib; first compound 0.2 µM) | relative viability (Entinostat + Tozasertib; first compound 0.6325 µM) | relative viability (Entinostat + Tozasertib; first compound 2 µM) | relative viability (SGI-1776 + Lapatinib; first compound 0.08 µM) | relative viability (SGI-1776 + Lapatinib; first compound 0.8 µM) | relative viability (SGI-1776 + Lapatinib; first compound 2.53 µM) | relative viability (SGI-1776 + Lapatinib; first compound 8 µM) | relative viability (Entinostat + Linsitinib; first compound 0.02 µM) | relative viability (Entinostat + Linsitinib; first compound 0.06325 µM) | relative viability (Entinostat + Linsitinib; first compound 0.2 µM) | relative viability (Entinostat + Linsitinib; first compound 0.6325 µM) | relative viability (Entinostat + Linsitinib; first compound 2 µM) | relative viability ([1]; first compound 0.02 µM) | relative viability ([1]; first compound 0.06325 µM) | relative viability ([1]; first compound 0.2 µM) | relative viability ([1]; first compound 0.6325 µM) | relative viability ([1]; first compound 2 µM)
NCI-H2009 | 0.713 | 0.753 | 0.647 | 0.452 | 0.336 | 0.985 | 0.897 | 1 | 0.766 | 1.28 | 1.18 | 1.06 | 0.8 | 0.651 | 0.984 | 1.11 | 0.927 | 1.07 | 0.72
NCI-H2023 | 0.218 | 0.221 | 0.138 | 0.0768 | 0.0712 | 0.918 | 1.21 | 1.04 | 0.219 | 0.671 | 0.778 | 0.48 | 0.191 | 0.133 | 0.669 | 0.711 | 0.49 | 0.56 | 0.257
NCI-H2085 | 0.788 | 0.618 | 0.612 | 0.431 | 0.365 | 0.838 | 0.847 | 0.748 | 0.687 | 0.871 | 0.865 | 0.788 | 0.574 | 0.499 | 0.971 | 0.947 | 0.817 | 0.887 | 0.522
NCI-H2087 | 0.222 | 0.219 | 0.177 | 0.116 | 0.0873 | 1.1 | 1.03 | 1.09 | 1.13 | 0.815 | 0.733 | 0.779 | 0.559 | 0.481 | 0.979 | 0.936 | 0.925 | 0.892 | 0.531
NCI-H2126 | 0.812 | 0.758 | 0.614 | 0.38 | 0.262 | 0.72 | 0.742 | 0.772 | 0.71 | 0.732 | 0.707 | 0.618 | 0.518 | 0.367 | 1.04 | 1.09 | 1.06 | 1 | 0.645
NCI-H2228 | 0.258 | 0.142 | 0.207 | 0.0934 | 0.11 | 0.816 | 1.21 | 0.927 | 0.415 | 0.587 | 0.635 | 0.578 | 0.365 | 0.354 | 0.489 | 0.536 | 0.364 | 0.397 | 0.291
NCI-H2347 | 0.355 | 0.382 | 0.345 | 0.175 | 0.18 | 1.13 | 0.965 | 0.948 | 0.869 | 0.987 | 0.984 | 0.903 | 0.408 | 0.349 | 0.603 | 0.678 | 0.744 | 0.759 | 0.649
NCI-H2405 | 0.736 | 0.78 | 0.607 | 0.524 | 0.319 | 0.994 | 1.14 | 1.19 | 0.728 | 0.977 | 1.11 | 1.04 | 0.896 | 0.789 | 0.885 | 0.864 | 0.848 | 0.821 | 0.659
NCI-H3122 | 0.334 | 0.36 | 0.479 | 0.275 | 0.102 | 0.964 | 1.05 | 1.07 | 0.988 | 1.02 | 1.03 | 1.07 | 1.08 | 0.868 | 0.312 | 0.236 | 0.242 | 0.271 | 0.24
